One compound from patent publication US10433539B2, “Composition and solution with controlled calcium ion level, and related method and use for reperfusion” (TEVOSOL, INC., priority 2014, dated 2019) can be followed below.

The data set relates to harvested pig hearts. As to conditions: 500 μmol/L lidocaine in cardioplegic compositions, combined data of Part 1 and Part 2 (1, 3, 5 hours). From the text:
Part 1: The next study assessed if there were potential incremental benefits to increasing the duration of reperfusion of harvested donor hearts with a mildly acidic hypocalcemic oxygenated cardioplegic composition.
The sample solutions used for these tests were the same as Sample solutions IIIC described above.

As to `CCN(CC)CC(=O)Nc1c(C)cccc1C` [lidocaine], the “effect of lidocaine concentration on donor heart myocardial function” value is given as “debilitating effects”.
